Source: ChEMBL document CHEMBL3881526, “Selective androgen receptor modulators and method of use thereof” (2007)
Active and inactive are the calls of the source. The calls are words filed in the database; no cut-off is given here.

Tests used:
[1] = test system: Rattus norvegicus; assay: Reduction in serum cholesterol in male Sprague-Dawley rat at 3 mg/kg, po qd administered for 28 days; type: functional; parameters: scale not given: the % may be the effect or the level left
[2] = test system: Rattus norvegicus; assay: Effect on serum LH in ORX Sprague-Dawley rat at 0.75 mg/day administered 9 days post ORX via oral gavage for 14 days (reference value: 9.66 +/- 1.13 ng/ml); type: functional
[3] = test system: Homo sapiens; assay: Effect on tissue fat level in healthy human at 10 mg administered daily via mouth for 14 days (reference value: 0.69%); type: functional, Adipose tissue
[4] = test system: Rattus norvegicus; assay: Androgenic activity in ORX Sprague-Dawley rat assessed as restoration in seminal vesicle weight at 1 mg/day measured after delayed dosing administered 9 days post ORX via oral gavage for 14 days relative to intact control; type: functional
[5] = test system: Homo sapiens; assay: Effect on regional fat level in healthy human at 3 mg administered daily via mouth for 14 days (reference value: 0.64%); type: functional
[6] = test system: Homo sapiens; assay: Effect on lean weight level in healthy human at 3 mg administered daily via mouth for 14 days (reference value: 436.47 g); type: functional
[7] = test system: Homo sapiens; assay: Effect on lean weight level in healthy human at 10 mg administered daily via mouth for 14 days (reference value: 436.47 g); type: functional
[8] = test system: Rattus norvegicus; assay: Androgenic activity in ORX Sprague-Dawley rat assessed as increase in prostate weight at 0.75 mg/day measured after delayed dosing administered 9 days post ORX via oral gavage for 14 days relative to intact control; type: functional
[9] = organism: Rattus norvegicus; assay: Effect on serum FSH in intact Sprague-Dawley rat at 1 mg/day measured for 14 days (reference value: 6.40 +/- 1.58 ng/ml); type: functional
[10] = test system: Rattus norvegicus; assay: Effect on serum FSH in ORX Sprague-Dawley rat at 0.1 mg/day administered 9 days post ORX via oral gavage for 14 days (reference value: 43.45 +/- 4.97 ng/ml); type: functional
[11] = test system: Homo sapiens; assay: Effect on tissue weight in healthy human at 10 mg administered daily via mouth for 14 days (reference value: -8.24 g); type: functional
[12] = test system: Rattus norvegicus; assay: Androgenic activity in ORX Sprague-Dawley rat assessed as restoration in seminal vesicle weight at 0.3 mg/day measured after delayed dosing administered 9 days post ORX via oral gavage for 14 days relative to intact control; type: functional
[13] = test system: Homo sapiens; assay: Effect on tissue fat level in truncal obese human at 30 mg administered daily via mouth for 14 days (reference value: 0.69%); type: functional, Adipose tissue
[14] = test system: Homo sapiens; assay: Effect on bone mineral content in healthy human at 3 mg administered daily via mouth for 14 days (reference value: 36.47 g); type: functional
[15] = test system: Homo sapiens; assay: Effect on fat weight in healthy human at 1 mg administered daily via mouth for 14 days (reference value: 436 g); type: functional
[16] = test system: Rattus norvegicus; assay: Effect on serum FSH in ORX Sprague-Dawley rat at 1 mg/day administered 9 days post ORX via oral gavage for 14 days (reference value: 43.45 +/- 4.97 ng/ml); type: functional
[17] = test system: Rattus norvegicus; assay: Effect on serum LH in ORX Sprague-Dawley rat at 0.3 mg/day administered 9 days post ORX via oral gavage for 14 days (reference value: 9.66 +/- 1.13 ng/ml); type: functional
[18] = test system: Rattus norvegicus; assay: Androgenic activity in intact Sprague-Dawley rat assessed as increase in prostate weight at 0.01 mg/day administered via oral gavage for 14 days relative to intact control; type: functional
[19] = Terminal half life in human at 1 to 100 mg administered as PEG300-based solution after 72 hrs; type: ADME; conditions: in vivo, read-out: beta t1/2
[20] = Drug uptake in human plasma at 1 to 100 mg administered as PEG300-based solution after 72 hrs; type: ADME, cell-free
[21] = Tmax in human plasma at 1 to 100 mg administered as solid oral dosage; type: ADME, cell-free
[22] = Tmax in human plasma at 1 to 100 mg administered as PEG300-based oral solution; type: ADME, cell-free
[23] = test system: Bone marrow cell; assay: Induction of differentiation of rat primary bone marrow cells toward osteoblast lineage assessed as ALP activity at 10 nM to 100 nM by spectrophotometric analysis; type: functional, cell-based
[24] = test system: Rattus norvegicus; assay: Androgenic activity in ORX Sprague-Dawley rat assessed as increase in prostate weight at 0.3 mg/day measured after delayed dosing administered 9 days post ORX via oral gavage for 14 days relative to intact control; type: functional
[25] = test system: Rattus norvegicus; assay: Androgenic activity in ORX Sprague-Dawley rat assessed as restoration of prostate weight measured after delayed dosing administered 9 days post ORX via oral gavage for 14 days; type: functional
[26] = organism: Rattus norvegicus; assay: Effect on serum FSH in intact Sprague-Dawley rat at 0.1 mg/day measured for 14 days (reference value: 6.40 +/- 1.58 ng/ml); type: functional
[27] = test system: Homo sapiens; assay: Effect on regional fat level in healthy human at 30 mg administered daily via mouth for 14 days (reference value: 0.64%); type: functional
[28] = test system: Rattus norvegicus; assay: Increase in femoral maximum load in OVX Sprague-Dawley rat at 3 mg/day administered daily co-treated with 1 mg/day alendronate by oral gavage measured after 45 days; type: functional
[29] = test system: Rattus norvegicus; assay: Anabolic activity in ORX Sprague-Dawley rat assessed as restoration of levator ani muscle weight measured after delayed dosing administered 9 days post ORX via oral gavage for 14 days; type: functional
[30] = test system: Rattus norvegicus; assay: Reduction in serum cholesterol in female Sprague-Dawley rat at 100 mg/kg, po qd administered for 28 days; type: functional, organism-based
[31] = test system: Rattus norvegicus; assay: Androgenic activity in ORX Sprague-Dawley rat assessed as restoration in seminal vesicle weight at 0.01 mg/day measured after delayed dosing administered 9 days post ORX via oral gavage for 14 days relative to intact control; type: functional
[32] = organism: Rattus norvegicus; assay: Effect on serum FSH in intact Sprague-Dawley rat at 0.75 mg/day measured for 14 days (reference value: 6.40 +/- 1.58 ng/ml); type: functional
[33] = test system: Homo sapiens; assay: Effect on lean weight level in truncal obese human at 30 mg administered daily via mouth for 14 days (reference value: 436.47 g); type: functional
[34] = organism: Rattus norvegicus; assay: Effect on serum LH in intact Sprague-Dawley rat at 0.1 mg/day measured for 14 days (reference value: 0.281 +/- 0.126 ng/ml); type: functional
[35] = test system: Homo sapiens; assay: Effect on fat weight in healthy human at 3 mg administered daily via mouth for 14 days (reference value: 436 g); type: functional
[36] = test system: Rattus norvegicus; assay: Induction of […] bone density in ovary intact Sprague-Dawley rat at 3 mg/day administered daily by oral gavage measured after 45 days (reference value: 379 mg/mm'3); type: functional
[37] = test system: Rattus norvegicus; assay: Anabolic activity in ORX Sprague-Dawley rat assessed as increase in levator ani muscle weight at 0.1 mg/day measured after delayed dosing administered 9 days post ORX via oral gavage for 14 days relative to intact control; type: functional
[38] = test system: Rattus norvegicus; assay: Induction of […] bone density in OVX Sprague-Dawley rat at 3 mg/day administered daily by oral gavage measured after 45 days (reference value: 215 mg/mm'3); type: functional
[39] = organism: Rattus norvegicus; assay: Effect on serum LH in intact Sprague-Dawley rat at 0.75 mg/day measured for 14 days (reference value: 0.281 +/- 0.126 ng/ml); type: functional
[40] = organism: Rattus norvegicus; assay: Effect on serum LH in intact Sprague-Dawley rat at 0.3 mg/day measured for 14 days (reference value: 0.281 +/- 0.126 ng/ml); type: functional
[41] = test system: Homo sapiens; assay: Effect on tissue weight in healthy human at 3 mg administered daily via mouth for 14 days (reference value: -8.24 g); type: functional
[42] = test system: Bone marrow cell; assay: Induction of differentiation of rat primary bone marrow cells toward osteoblast lineage assessed as ALP activity at 1 uM by spectrophotometric analysis; type: functional, cell-based
[43] = test system: Rattus norvegicus; assay: Effect on serum LH in ORX Sprague-Dawley rat at 1 mg/day administered 9 days post ORX via oral gavage for 14 days (reference value: 9.66 +/- 1.13 ng/ml); type: functional
[44] = organism: Rattus norvegicus; assay: Effect on serum LH in intact Sprague-Dawley rat at 1 mg/day measured for 14 days (reference value: 0.281 +/- 0.126 ng/ml); type: functional
[45] = test system: Homo sapiens; assay: Effect on regional fat level in healthy human at 1 mg administered daily via mouth for 14 days (reference value: 0.64%); type: functional
[46] = test system: Rattus norvegicus; assay: Effect on serum LH in ORX Sprague-Dawley rat at 0.01 mg/day administered 9 days post ORX via oral gavage for 14 days (reference value: 9.66 +/- 1.13 ng/ml); type: functional
[47] = test system: Homo sapiens; assay: Effect on lean weight level in truncal obese human at 3 mg administered daily via mouth for 14 days (reference value: 436.47 g); type: functional
[48] = test system: Rattus norvegicus; assay: Androgenic activity in ORX Sprague-Dawley rat assessed as increase in prostate weight at 0.01 mg/day measured after delayed dosing administered 9 days post ORX via oral gavage for 14 days relative to intact control; type: functional
[49] = test system: Homo sapiens; assay: Effect on fat weight in healthy human at 10 mg administered daily via mouth for 14 days (reference value: 436 g); type: functional
[50] = test system: Rattus norvegicus; assay: Androgenic activity in ORX Sprague-Dawley rat assessed as restoration in seminal vesicle weight at 0.03 mg/day measured after delayed dosing administered 9 days post ORX via oral gavage for 14 days relative to intact control; type: functional

CC(O)(COc1ccc(C#N)cc1)C(=O)Nc1ccc(C#N)c(C(F)(F)F)c1 (stereo unspecified)
Activity [1]: 30%
Activity [2]: Below limit of detection
Activity [3]: 0.1%
Activity [4]: 67%
Activity [5]: -0.22%
Activity [6]: 752.11 g
Activity [7]: 368.67 g
Activity [8]: 62%
Activity [9]: 4.38 ng/mL
Activity [10]: 20.69 ng/mL
Activity [11]: 566.22 g
Activity [12]: 49%
Activity [13]: -0.13%
Activity [14]: -32.22 g
Activity [15]: 197.89 g
Activity [16]: 6.33 ng/mL
Activity [17]: Below limit of detection
Activity [18]: Active
half-life [19]: 19 to 22 h
Drug uptake [20]: Active
Tmax [21]: 3.2 to 3.9 h
Tmax [22]: 0.8 to 2.3 h
Activity [23]: Active
Activity [24]: 50%
ED50 [25]: 0.22 mg/kg
Emax [25]: 75%
Activity [26]: 6.6 ng/mL
Activity [27]: 0.95%
Activity [28]: 207 N
ED50 [29]: 0.013 mg/kg
Activity [30]: Active
Activity [31]: 7%
Activity [32]: 4.3 ng/mL
Activity [33]: 261 g
Activity [34]: 0.177 ng/mL
Activity [35]: -22.67 g
Activity [36]: 398 mg/mm3
Activity [37]: 103%
Activity [38]: 406 mg/mm3
Activity [39]: Below limit of detection
Activity [40]: Below limit of detection
Activity [41]: 728.89 g
Activity [42]: Active
Activity [43]: Below limit of detection
Activity [44]: Below limit of detection
Activity [45]: 0.23%
Activity [46]: 8.45 ng/mL
Activity [47]: 1569.44 g
Activity [48]: 9%
Activity [49]: 197.44 g
Activity [50]: 9%
